Results: ChEMBL document CHEMBL5729561, “Compounds and uses thereof” (2023)

Test: On day 0 cells were seeded in 30 μL media into each well of 384-well cell culture plates. The seeding density was 8000 cells/well. On day 1, cells were treated with 30 nL DMSO or 30 nL of 3-fold serially DMSO-diluted compounds (10 points in duplicates with 1 μM as final top dose). Subsequently plates were incubated for 6 hours in a standard tissue culture incubator and equilibrated at room temperature for 15 minutes. Nanoluciferase activity was measured by adding 15 μL of freshly prepared Nano-Glo Luciferase Assay Reagent (Promega N1130), shaking the plates for 10 minutes and reading the bioluminescence using an EnVision reader.
Format: cell-based

COc1cc(-c2cn(C)c(=O)c3cnccc23)cc(OC)c1CN1CC2C1CCN2C(=O)CCOCCOc1cccc2c1C(=O)N(C1CCC(=O)NC1=O)C2=O (configuration not stated)
IC50: < 10 nM

COc1cc(-c2cn(C)c(=O)c3cnccc23)cc(OC)c1CN(C)Cc1cn(CCOCCOc2ccc3c(c2)C(=O)N(C2CCC(=O)NC2=O)C3=O)nn1 (configuration not stated)
IC50: in the range around 550 nM

COc1cc(-c2cn(C)c(=O)c3cnccc23)cc(OC)c1CN1CC[C@H]1C(=O)NCCCCCCCCNc1cccc2c1C(=O)N(C1CCC(=O)NC1=O)C2=O (some centres not stated)
IC50: < 10 nM

COc1cc(-c2cn(C)c(=O)c3cnccc23)cc(OC)c1CN1CCC2CCN(C(=O)CCOCCOc3cccc4c3C(=O)N(C3CCC(=O)NC3=O)C4=O)CC21 (configuration not stated)
IC50: in the range around 55 nM

COc1cc(-c2cn(C)c(=O)c3cnccc23)cc(OC)c1CN1CCCC(OCc2cn(CCOCCOc3ccc4c(c3)C(=O)N(C3CCC(=O)NC3=O)C4=O)nn2)C1 (configuration not stated)
IC50: in the range around 55 nM

COc1cc(-c2cn(C)c(=O)c3cnccc23)cc(OC)c1CN1CCC(OCc2cn(CCOc3ccc4c(c3)C(=O)N(C3CCC(=O)NC3=O)C4=O)nn2)CC1 (configuration not stated)
IC50: in the range around 55 nM

COc1cc(-c2cn(C)c(=O)c3cnccc23)cc(OC)c1CN1CCC2(CC1)CC(NC(=O)CCOCCOc1ccc3c(c1)C(=O)N(C1CCC(=O)NC1=O)C3=O)C2 (configuration not stated)
IC50: in the range around 55 nM

COc1cc(-c2cn(C)c(=O)c3cnccc23)cc(OC)c1CN1CCN(C(=O)COc2cccc3c2C(=O)N(C2CCC(=O)NC2=O)C3=O)CC1 (configuration not stated)
IC50: < 10 nM

COc1cc(-c2cn(C)c(=O)c3cnccc23)cc(OC)c1CN(C)CCc1cn(-c2ccc3c(c2)C(=O)N(C2CCC(=O)NC2=O)C3=O)nn1 (configuration not stated)
IC50: in the range around 55 nM

COc1cc(-c2cn(C)c(=O)c3cnccc23)cc(OC)c1CN1CCC(OCc2cn(CCCCOc3ccc4c(c3)C(=O)N(C3CCC(=O)NC3=O)C4=O)nn2)C1 (configuration not stated)
IC50: in the range around 55 nM

COc1cc(-c2cn(C)c(=O)c3cnccc23)cc(OC)c1CN1CCN(C(=O)C2CC2CNC(=O)COc2ccc3c(c2)C(=O)N(C2CCC(=O)NC2=O)C3=O)CC1 (configuration not stated)
IC50: in the range around 550 nM

COc1cc(-c2cn(C)c(=O)c3cnccc23)cc(OC)c1CN1CCCC(OCc2cn(-c3ccc4c(c3)C(=O)N(C3CCC(=O)NC3=O)C4=O)nn2)C1 (configuration not stated)
IC50: in the range around 550 nM

COc1cc(-c2cn(C)c(=O)c3cnccc23)cc(OC)c1CN1CCC(C2CCN(C(=O)CCOCCOc3ccc4c(c3)C(=O)N(C3CCC(=O)NC3=O)C4=O)C2)CC1 (configuration not stated)
IC50: < 10 nM

COc1cc(-c2cn(C)c(=O)c3cnccc23)cc(OC)c1CN(C)C1CCC2CN(C(=O)CCOCCOc3ccc4c(c3)C(=O)N(C3CCC(=O)NC3=O)C4=O)CC21 (configuration not stated)
IC50: < 10 nM

COc1cc(-c2cn(C)c(=O)c3cnccc23)cc(OC)c1CN(C)CC1CC12CCN(C(=O)CCOCCOc1ccc3c(c1)C(=O)N(C1CCC(=O)NC1=O)C3=O)CC2 (configuration not stated)
IC50: in the range around 55 nM

COc1cc(-c2cn(C)c(=O)c3cnccc23)cc(OC)c1CN1CC(C(=O)NCCCCCNc2cccc3c2C(=O)N(C2CCC(=O)NC2=O)C3=O)C1 (configuration not stated)
IC50: < 10 nM

COc1cc(-c2cn(C)c(=O)c3cnccc23)cc(OC)c1CN1CCC2CCN(C(=O)CCOCCOc3ccc4c(c3)C(=O)N(C3CCC(=O)NC3=O)C4=O)CC21 (configuration not stated)
IC50: < 10 nM

COc1cc(-c2cn(C)c(=O)c3cnccc23)cc(OC)c1CN1CC(OCc2cn(CCCOc3ccc4c(c3)C(=O)N(C3CCC(=O)NC3=O)C4=O)nn2)C1 (configuration not stated)
IC50: in the range around 550 nM

COc1cc(-c2cn(C)c(=O)c3cnccc23)cc(OC)c1CN(C)CCc1cn(CCOc2ccc3c(c2)C(=O)N(C2CCC(=O)NC2=O)C3=O)nn1 (configuration not stated)
IC50: in the range around 55 nM

COc1cc(-c2cn(C)c(=O)c3cnccc23)cc(OC)c1CN1CCC(OCc2cn(CCOCCOc3ccc4c(c3)C(=O)N(C3CCC(=O)NC3=O)C4=O)nn2)CC1 (configuration not stated)
IC50: in the range around 55 nM

COc1cc(-c2cn(C)c(=O)c3cnccc23)cc(OC)c1CN1CC(C(=O)NCCCCCCCCNC(=O)COc2cccc3c2C(=O)N(C2CCC(=O)NC2=O)C3=O)C1 (configuration not stated)
IC50: in the range around 55 nM

COc1cc(-c2cn(C)c(=O)c3cnccc23)cc(OC)c1CN(C)CC1CC2(CCN(C(=O)CCOCCOc3ccc4c(c3)C(=O)N(C3CCC(=O)NC3=O)C4=O)CC2)O1 (configuration not stated)
IC50: < 10 nM

COc1cc(-c2cn(C)c(=O)c3cnccc23)cc(OC)c1CN(C)Cc1cn(CCCCCOc2ccc3c(c2)C(=O)N(C2CCC(=O)NC2=O)C3=O)nn1 (configuration not stated)
IC50: in the range around 55 nM

COc1cc(-c2cn(C)c(=O)c3cnccc23)cc(OC)c1CN1CCC12CN(C(=O)CCOCCOc1cccc3c1C(=O)N(C1CCC(=O)NC1=O)C3=O)C2 (configuration not stated)
IC50: in the range around 550 nM

COc1cc(-c2cn(C)c(=O)c3cnccc23)cc(OC)c1CN(C)CCc1cn(CCOCCOc2ccc3c(c2)C(=O)N(C2CCC(=O)NC2=O)C3=O)nn1 (configuration not stated)
IC50: in the range around 55 nM

COc1cc(-c2cn(C)c(=O)c3cnccc23)cc(OC)c1CN1CCC(OCc2cn(CCCCCOc3ccc4c(c3)C(=O)N(C3CCC(=O)NC3=O)C4=O)nn2)CC1 (configuration not stated)
IC50: < 10 nM

COc1cc(-c2cn(C)c(=O)c3cnccc23)cc(OC)c1CN1CCC(OC2CCN(C(=O)CCOCCOc3cccc4c3C(=O)N(C3CCC(=O)NC3=O)C4=O)C2)CC1 (configuration not stated)
IC50: in the range around 55 nM

COc1cc(-c2cn(C)c(=O)c3cnccc23)cc(OC)c1CN1CC(OCc2cn(CCOCCOc3ccc4c(c3)C(=O)N(C3CCC(=O)NC3=O)C4=O)nn2)C1 (configuration not stated)
IC50: in the range around 550 nM

COc1cc(-c2cn(C)c(=O)c3cnccc23)cc(OC)c1CN(C)CC1CC2(CCN(C(=O)CCOCCOc3ccc4c(c3)C(=O)N(C3CCC(=O)NC3=O)C4=O)CC2)C1 (configuration not stated)
IC50: in the range around 55 nM

COc1cc(-c2cn(C)c(=O)c3cnccc23)cc(OC)c1CN(C)CCc1cn(CCCOc2ccc3c(c2)C(=O)N(C2CCC(=O)NC2=O)C3O)nn1 (configuration not stated)
IC50: in the range around 550 nM

COc1cc(-c2cn(C)c(=O)c3cnccc23)cc(OC)c1CN1CC2C1CCN2C(=O)CCOCCOc1ccc2c(c1)C(=O)N(C1CCC(=O)NC1=O)C2=O (configuration not stated)
IC50: < 10 nM

COc1cc(-c2cn(C)c(=O)c3cnccc23)cc(OC)c1CN1CCC12CN(C(=O)CCOCCOc1ccc3c(c1)C(=O)N(C1CCC(=O)NC1=O)C3=O)C2 (configuration not stated)
IC50: in the range around 550 nM

COc1cc(-c2cn(C)c(=O)c3cnccc23)cc(OC)c1CN1CC(CCNC(=O)CCOCCOc2ccc3c(c2)C(=O)N(C2CCC(=O)NC2=O)C3=O)C1 (configuration not stated)
IC50: in the range around 550 nM

COc1cc(-c2cn(C)c(=O)c3cnccc23)cc(OC)c1CN1CCC(OC2CCN(C(=O)CCOCCOc3ccc4c(c3)C(=O)N(C3CCC(=O)NC3=O)C4=O)C2)CC1 (configuration not stated)
IC50: < 10 nM

COc1cc(-c2cn(C)c(=O)c3cnccc23)cc(OC)c1CN(C)CC1CC2(CCN(C(=O)CCOCCOc3cccc4c3C(=O)N(C3CCC(=O)NC3=O)C4=O)CC2)O1 (configuration not stated)
IC50: in the range around 55 nM

COc1cc(-c2cn(C)c(=O)c3cnccc23)cc(OC)c1CN1CC[C@@H]1C(=O)NCCCCCCCCNc1cccc2c1C(=O)N(C1CCC(=O)NC1=O)C2=O (some centres not stated)
IC50: < 10 nM

COc1cc(-c2cn(C)c(=O)c3cnccc23)cc(OC)c1CN1CC2(CCN(C(=O)CCOCCOc3ccc4c(c3)C(=O)N(C3CCC(=O)NC3=O)C4=O)CC2)C1 (configuration not stated)
IC50: in the range around 55 nM

COc1cc(-c2cn(C)c(=O)c3cnccc23)cc(OC)c1CN1CCC(COC2CCN(C(=O)CCOCCOc3cccc4c3C(=O)N(C3CCC(=O)NC3=O)C4=O)C2)CC1 (configuration not stated)
IC50: in the range around 55 nM

COc1cc(-c2cn(C)c(=O)c3cnccc23)cc(OC)c1CN1CC2(CCN(C(=O)CCOCCOc3ccc4c(c3)C(=O)N(C3CCC(=O)NC3=O)C4=O)C2)C1 (configuration not stated)
IC50: < 10 nM

COc1cc(-c2cn(C)c(=O)c3cnccc23)cc(OC)c1CN1CC2CN(C(=O)CCOCCOc3ccc4c(c3)C(=O)N(C3CCC(=O)NC3=O)C4=O)CCC21 (configuration not stated)
IC50: < 10 nM

COc1cc(-c2cn(C)c(=O)c3cnccc23)cc(OC)c1ON1CCC2(CCN(C(=O)CCOCCOc3cccc4c3C(=O)N(C3CCC(=O)NC3=O)C4=O)CC2)C1 (configuration not stated)
IC50: < 10 nM

COc1cc(-c2cn(C)c(=O)c3cnccc23)cc(OC)c1CN(C)CC1CC2(CCN(C(=O)CCOCCOc3cccc4c3C(=O)N(C3CCC(=O)NC3=O)C4=O)CC2)CO1 (configuration not stated)
IC50: in the range around 55 nM

COc1cc(-c2cn(C)c(=O)c3cnccc23)cc(OC)c1CN1CCC(OCc2cn(-c3ccc4c(c3)C(=O)N(C3CCC(=O)NC3=O)C4=O)nn2)CC1 (configuration not stated)
IC50: in the range around 55 nM

COc1cc(-c2cn(C)c(=O)c3cnccc23)cc(OC)c1CN1CC(C(=O)NCCCCCCCCNc2cccc3c2C(=O)N(C2CCC(=O)N(C)C2=O)C3=O)C1 (configuration not stated)
IC50: > 1000 nM

COc1cc(-c2cn(C)c(=O)c3cnccc23)cc(OC)c1CN1CC(S(=O)(=O)NCCCCCCCCNc2cccc3c2C(=O)N(C2CCC(=O)NC2=O)C3=O)C1 (configuration not stated)
IC50: < 10 nM

COc1cc(-c2cn(C)c(=O)c3cnccc23)cc(OC)c1CN1CCN(C(=O)CCCOc2cccc3c2C(=O)N(C2CCC(=O)NC2=O)C3=O)CC1 (configuration not stated)
IC50: < 10 nM

COc1cc(-c2cn(C)c(=O)c3cnccc23)cc(OC)c1CN1CCC(OCc2cn(CCOCCOc3ccc4c(c3)C(=O)N(C3CCC(=O)NC3=O)C4=O)nn2)C1 (configuration not stated)
IC50: in the range around 55 nM

COc1cc(-c2cn(C)c(=O)c3cnccc23)cc(OC)c1CN1CCN(C(=O)CCCCOc2cccc3c2C(=O)N(C2CCC(=O)NC2=O)C3=O)CC1 (configuration not stated)
IC50: < 10 nM

COc1cc(-c2cn(C)c(=O)c3cnccc23)cc(OC)c1CN1CC(C(=O)NCCCCCCCCNc2cccc3c2C(=O)N(C2CCC(=O)NC2=O)C3=O)C1 (configuration not stated)
IC50: < 10 nM

COc1cc(-c2cn(C)c(=O)c3cnccc23)cc(OC)c1CN1CCC2(CC1)CN(C(=O)CCCOc1cccc3c1C(=O)N(C1CCC(=O)NC1=O)C3=O)CCO2 (configuration not stated)
IC50: < 10 nM

COc1cc(-c2cn(C)c(=O)c3cnccc23)cc(OC)c1CN1CCC2(CC1)CN(C(=O)CCOCCOc1ccc3c(c1)C(=O)N(C1CCC(=O)NC1=O)C3=O)C2 (configuration not stated)
IC50: in the range around 55 nM

COc1cc(-c2cn(C)c(=O)c3cnccc23)cc(OC)c1CN1CC(C(=O)N(C)CCCCCNc2cccc3c2C(=O)N(C2CCC(=O)NC2=O)C3=O)C1 (configuration not stated)
IC50: < 10 nM
